In patent US8389526B2, “3-heteroarylmethyl-imidazo[1,2-b]pyridazin-6-yl derivatives” (Novartis AG, priority 2009, dated 2013):
Converted amounts (≈) assume the structure as drawn. Where two headings read alike, the source gives them in different places.

Experiments:
[1] = biological target: T1, c-Met receptor tyrosine kinase, GST-c-Met(969-1390) (Homo sapiens, UniProt P08581); assay: EPK c-Met profiling assay (LanthaScreen TR-FRET kinase assay); assay type: biochemical; settings: 2 μM ATP, 0.3 nM enzyme, 60 minutes at room temperature
T1 construct: made in house
T1 sequence (P08581 969-1390): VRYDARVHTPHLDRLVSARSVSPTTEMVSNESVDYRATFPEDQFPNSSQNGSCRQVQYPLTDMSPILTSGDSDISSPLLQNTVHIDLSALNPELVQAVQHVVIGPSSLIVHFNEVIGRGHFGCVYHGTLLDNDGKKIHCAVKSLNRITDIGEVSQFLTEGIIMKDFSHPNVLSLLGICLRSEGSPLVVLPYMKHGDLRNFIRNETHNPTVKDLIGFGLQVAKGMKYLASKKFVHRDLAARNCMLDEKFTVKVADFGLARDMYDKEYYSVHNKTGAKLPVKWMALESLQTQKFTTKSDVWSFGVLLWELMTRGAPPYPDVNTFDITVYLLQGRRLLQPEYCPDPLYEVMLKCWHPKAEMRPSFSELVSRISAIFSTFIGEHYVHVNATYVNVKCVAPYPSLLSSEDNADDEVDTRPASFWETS
Procedure, shortened: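 Recombinant GST-c-Met(969-1390) cytoplasmic domain, 0.3 nM, phosphorylating 50 nM Fluorescein-PolyEAY with 2 μM ATP, 10 mM MgCl2, 3 mM MnCl2, 60 min at room temperature. EDTA-stopped; phosphoproduct detected by TR-FRET with Tb-PY20 antibody, end-point read. Final compound 0.003-10 μM over 8 concentrations.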

[2] = tested on: MET-amplified gastric cancer cell line GTL-16; assay: GTL-16 proliferation assay (MTS); assay type: cell-based; settings: Homo sapiens, GTL-16 cells, 72 h incubation
Procedure, shortened: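 GTL-16 cells were seeded at 3000/well in DMEM with 10% FCS. After 24 h they were treated in triplicate with a 10-point, 3-fold dilution series ([…]; DMSO-only control) for 72 h. Viable cells were measured by MTS, with OD 490 nm read after 30 min.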

[3] = Solubility assay at pH 7 and in FaSSIF; assay type: physicochemical; settings: thermodynamic from solid
Method: A number of compounds of the present invention were assayed in a solubility assay at pH 7 and in fasted state simulated intestinal fluid (FaSSIF).
Solubility of the compounds was determined by suspending about 0.3 to 1.0 mg of drug substance in 0.1 mL of phosphate buffer at pH 7 and respectively FaSSIF.
Buffer pH 7 was obtained from MERCK as Tritisol® Phosphate Buffer. The Medium to Simulate the Fasted State Upper Small Intestine (Fasted State Simulated Intestinal Fluid) or FaSSIF was developed according to J. Dressmann publication Jantratid Ekarat; Janssen Niels; Reppas Christos; Dressman Jennifer B Dissolution media simulating conditions in the proximal human gastrointestinal tract: an update. Pharmaceutical research (2008), 25(7), 1663-76.
Composition from the FaSSIF is described in the following Table 3.
The suspensions or solutions were stirred over night at room temperature. After separation of the un-dissolved part by filtration (centrifugation using 0.45 μm PVDF or PTFE filters), the solutions were if necessary, diluted with acetonitrile to obtain concentrations below 1.0 mg/mL prior to UPLC analysis. Samples were then analyzed by UPLC to get the concentrations level of compound in the different media. Prior to analysis a method has been developed for each compound with an according calibration.
UPLC parameters: Column Aquity50*2.1 mm C18 1.7ym; Column temperature: 40° C.; mobile phase A: water MilliQ+0.1% TFA and B acetonitrile, gradient grade, +0.1% TFA.

[4] = FaSSIF (fasted state simulated intestinal fluid), fassif, fasted state simulated intestinal fluid, stirred over night at room temperature, read-out: Solubility FaSSIF
[5] = aqueous buffer, phosphate buffer pH 7, stirred over night at room temperature, read-out: Solubility Buffer pH 7

Row | SMILES | IC50 [1] | IC50 [2] | solubility [3, 4] | solubility [3, 5]
1 | C[C@@H](c1c(F)cc2ncccc2c1F)c1cnc2ccc(N3CCNCC3)nn12 [Example 7, 5,7-Difluoro-6-[(S)-1-(6-piperazin-1-yl-imidazo[1,2-b]pyridazin-3-yl)-ethyl]-quinoline] | 4.1 nM | 6.4 nM | 172 µg/mL (≈ 436 µM) | 248 µg/mL (≈ 629 µM)
2 | C[C@@H](c1c(F)cc2ncccc2c1F)c1cnc2ccc(N3CCNC(=O)C3)nn12 (single isomer, unassigned) [Example 5] | < 3 nM | 3.6 nM | 164 µg/mL (≈ 402 µM) | 91 µg/mL (≈ 223 µM)
3 | CC(=O)N1CCN(c2ccc3ncc([C@@H](C)c4c(F)cc5ncccc5c4F)n3n2)CC1 [Example 11, 1-(4-{3-[(S)-1-(5,7-Difluoro-quinolin-6-yl)-ethyl]-imidazo[1,2-b]pyridazin-6-yl}-piperazin-1-yl)ethanone] | 3.6 nM | 7.2 nM | 1350 µg/mL (≈ 3100 µM) | 32 µg/mL (≈ 73.3 µM)
4 | C[C@@H](c1cc2cnn(C)c2cc1F)c1cnc2ccc(N3CCNC(=O)C3)nn12 [Example 28, 4-{3-[(S)-1-(6-Fluoro-1-methyl-1H-indazol-5-yl)-ethyl]-imidazo[1,2-b]pyridazin-6-yl}-piperazin-2-one] | 17 nM | 26 nM | 374 µg/mL (≈ 951 µM) | 117 µg/mL (≈ 297 µM)
5 | C[C@@H](c1c(F)cc2ncccc2c1F)c1cnc2ccc(N3CCN(C)C(=O)C3)nn12 [Example 2, 4-{3-[(S)-1-(5,7-Difluoro-quinolin-6-yl)-ethyl]-imidazo[1,2-b]pyridazin-6-yl}-1-methyl-piperazin-2-one] | < 3 nM | 1.7 nM | 289 µg/mL (≈ 684 µM) | 29 µg/mL (≈ 68.6 µM)
